Source: PMC10282093, “Structural basis of α1A-adrenergic receptor activation and recognition by an extracellular nanobody” (Nature Communications, 2023)
Where “and” joins values, the source holds several entries; their conditions need not be identical. Equal entries are not always repeated. Where two headings read alike, the source gives them in different places.

Columns and labels:
HEK293T cells (mock) = assay: Glo-sensor cAMP assay, mock (negative control); format: cell-based
α1AAR = target: T1, α1AAR (Homo sapiens, UniProt P35348); assay: Glo-sensor cAMP signaling assay with engineered Gsq protein in HEK293T cells; settings: HEK-293T
T1 sequence (P35348 1-466): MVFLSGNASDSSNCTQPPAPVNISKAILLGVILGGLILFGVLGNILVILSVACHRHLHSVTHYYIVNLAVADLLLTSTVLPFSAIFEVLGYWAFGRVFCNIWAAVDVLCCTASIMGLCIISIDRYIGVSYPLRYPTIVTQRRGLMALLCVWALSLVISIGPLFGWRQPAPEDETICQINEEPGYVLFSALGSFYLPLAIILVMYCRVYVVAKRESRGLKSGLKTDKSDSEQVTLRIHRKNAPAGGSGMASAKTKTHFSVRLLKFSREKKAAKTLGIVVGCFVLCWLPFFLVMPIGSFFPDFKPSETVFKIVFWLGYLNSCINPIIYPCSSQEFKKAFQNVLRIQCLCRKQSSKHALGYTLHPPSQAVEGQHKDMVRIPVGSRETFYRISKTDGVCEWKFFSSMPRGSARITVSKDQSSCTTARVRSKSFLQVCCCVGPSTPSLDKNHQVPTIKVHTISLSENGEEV

activation at 0.01 µM (α1AAR; 5 min, read-out: α1AAR activation (Noradrenaline %), 10 nM NA, 5 min): 27.1% | activation at 0.01 µM (α1AAR; 5.5 min, read-out: α1AAR activation (Noradrenaline %), 10 nM NA, […]): 32.4% | activation at 0.01 µM (α1AAR; 0.1 h, read-out: α1AAR activation (Noradrenaline %), 10 nM NA, 6 min): 36.3% | activation at 0.01 µM (α1AAR; 6.5 min, read-out: α1AAR activation (Noradrenaline %), 10 nM NA, […]): 40.4% | activation at 0.01 µM (α1AAR; 7 min, read-out: α1AAR activation (Noradrenaline %), 10 nM NA, 7 min): 44.7% | activation at 0.01 µM (α1AAR; 0.125 h, read-out: α1AAR activation (Noradrenaline %), 10 nM NA, 7.5 min): 51.2% | activation at 0.01 µM (α1AAR; 8 min, read-out: α1AAR activation (Noradrenaline %), 10 nM NA, 8 min): 54.9% | activation at 0.01 µM (α1AAR; 8.5 min, read-out: α1AAR activation (Noradrenaline %), 10 nM NA, 8.5 min): 60.5% | activation at 0.01 µM (α1AAR; 0.175 h, read-out: α1AAR activation (Noradrenaline %), 10 nM NA, 10.5 min): 78.1% | activation at 0.01 µM (α1AAR; 11 min, read-out: α1AAR activation (Noradrenaline %), 10 nM NA, 11 min): 83.6% | activation at 0.01 µM (α1AAR; 11.5 min, read-out: α1AAR activation (Noradrenaline %), 10 nM NA, […]): 88.1% | activation at 0.01 µM (α1AAR; 0.2 h, read-out: α1AAR activation (Noradrenaline %), 10 nM NA, 12 min): 90.9% | activation at 0.01 µM (α1AAR; 12.5 min, read-out: α1AAR activation (Noradrenaline %), 10 nM NA, 12.5 min): 92.5% | activation at 0.01 µM (α1AAR; 13 min, read-out: α1AAR activation (Noradrenaline %), 10 nM NA, 13 min): 95.2% | activation at 0.01 µM (α1AAR; 0.225 h, read-out: α1AAR activation (Noradrenaline %), 10 nM NA, 13.5 min): 98.2% | activation at 0.01 µM (α1AAR; 14 min, read-out: α1AAR activation (Noradrenaline %), 10 nM NA, 14 min): 99.3% | activation at 0.01 µM (α1AAR; 14.5 min, read-out: α1AAR activation (Noradrenaline %), 10 nM NA, […]): 99.1% | activation at 0.01 µM (α1AAR; 0.25 h, read-out: α1AAR activation (Noradrenaline %), 10 nM NA, 15 min): 102% | activation at 0.01 µM (α1AAR; 15.5 min, read-out: α1AAR activation (Noradrenaline %), 10 nM NA, 15.5 min): 102% | activation at 0.01 µM (α1AAR; 16 min, read-out: α1AAR activation (Noradrenaline %), 10 nM NA, 16 min): 101% | activation at 0.01 µM (α1AAR; 17 min, read-out: α1AAR activation (Noradrenaline %), 10 nM NA, 17 min): 99.9% | activation at 0.01 µM (α1AAR; 17.5 min, read-out: α1AAR activation (Noradrenaline %), 10 nM NA, 17.5 min): 99.3% | activation at 0.01 µM (α1AAR; 0.3 h, read-out: α1AAR activation (Noradrenaline %), 10 nM NA, 18 min): 99.3% | activation at 0.01 µM (α1AAR; 18.5 min, read-out: α1AAR activation (Noradrenaline %), 10 nM NA, 18.5 min): 99% | activation at 0.01 µM (α1AAR; 19 min, read-out: α1AAR activation (Noradrenaline %), 10 nM NA, 19 min): 96.4% | activation at 0.01 µM (α1AAR; 0.325 h, read-out: α1AAR activation (Noradrenaline %), 10 nM NA, 19.5 min): 97.2% | activation at 0.01 µM (α1AAR; 20 min, read-out: α1AAR activation (Noradrenaline %), 10 nM NA, 20 min): 96% | activation at 0.01 µM (α1AAR; […], read-out: α1AAR activation (Noradrenaline %), 10 nM NA, 9 min): 64.4% | activation at 0.01 µM (α1AAR; […], read-out: α1AAR activation (Noradrenaline %), 10 nM NA, 16.5 min): 100% | activation at 100 µM (α1AAR; read-out: α1AAR activation (Noradrenaline %), NA Log[M] -4): 86.3% | activation at 1 µM (α1AAR; read-out: α1AAR activation (Noradrenaline %), NA Log[M] -6): 105% | activation at 0.1 µM (α1AAR; read-out: α1AAR activation (Noradrenaline %), NA Log[M] -7): 82.8% | activation at 0.01 µM (α1AAR; read-out: α1AAR activation (Noradrenaline %), NA Log[M] -8): 45.2%
SMILES: NC[C@H](O)c1ccc(O)c(O)c1 [Noradrenaline, noradrenaline]
cAMP Glo-sensor signal (Noradrenaline %) (HEK293T cells (mock); NA Log[M] -4, listed as NA): 41.093% and 40.8624% and 40.5271% | cAMP Glo-sensor signal (Noradrenaline %) (HEK293T cells (mock); NA Log[M] -5, listed as NA): 20.1779% and 21.0064% and 19.7646% | cAMP Glo-sensor signal (Noradrenaline %) (HEK293T cells (mock); NA Log[M] -6, listed as NA): 7.941% and 8.285% and 8.539% | cAMP Glo-sensor signal (Noradrenaline %) (HEK293T cells (mock); NA Log[M] -7, listed as NA): 6.318% and 5.663% and 5.337% | cAMP Glo-sensor signal (Noradrenaline %) (HEK293T cells (mock); NA Log[M] -8, listed as NA): 5.486% and 4.494% and 5.028% | cAMP Glo-sensor signal (Noradrenaline %) (HEK293T cells (mock); NA Log[M] -9, listed as NA): 5.1702% and 5.365% and 5.344% | cAMP Glo-sensor signal (Noradrenaline %) (HEK293T cells (mock); NA Log[M] -10, listed as NA): 5.58% and 5.603% and 5.064% | cAMP Glo-sensor signal (Noradrenaline %) (HEK293T cells (mock); NA Log[M] -11, listed as NA): 6.233% and 5.97% and 5.757%
